These results are taken from patent US20140315876A1, “BETA-LACTAMASE INHIBITORS” (priority 2013, published 2014).

The test system of assay [1] is bacterial strains that express the class D cephalosporinase OXA-15. The assay is described as follows: Synergy MIC / standard BLI potentiation MIC assay, strains expressing OXA-15. It counts as cell-based, E. coli. Conditions: in the presence of a β-lactam; comparator Avibactam (comparator compound CCC). In short, it runs like this:
(§1)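 Broth microdilution in CAMHB per CLSI, ~10^5 CFU/mL, 18-20 h at 37° C; MIC is lowest concentration with no visible turbidity. Potentiation: β-lactam 128-0.13 μg/mL with BLI fixed at 4 μg/mL. Synergy: BLI serially diluted with β-lactam fixed. Engineered E. coli kept on 25 μg/mL tetracycline.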

Assay [2] relates to bacterial strains that express KPC β-lactamases. The assay is described as follows: Synergy MIC / standard BLI potentiation MIC assay, strains expressing KPC β-lactamases. It counts as cell-based. Conditions: more active for at least one KPC strain and/or better spectrum of activity than Avibactam; in the presence of a β-lactam. The essentials: as §1

Structures can show the parent of a compound that is named as a salt.

Consider `N[C@H]1C[C@@H](c2nnc([C@@H]3CC[C@@H]4CN3C(=O)N4OS(=O)(=O)O)s2)C1` [Compound 795, (2S,5R)-2-(5-((1s,3R)-3-aminocyclobutyl)-1,3,4-thiadiazol-2-yl)-7-oxo-1,6-diazabicyclo[3.2.1]octan-6-yl hydrogen sulfate], for which, in assay [1], the “activity against bacterial strains that express the class D cephalosporinase OXA-15, compared with Avibactam” value is recorded as “more active than Avibactam”. In assay [2], the “activity and/or spectrum of activity against bacterial strains that express KPC β-lactamases, compared with Avibactam” value was “more active than Avibactam”.
